According to patent publication US9017692B2, “Antimicrobial agent, bacterial strain, biosynthesis, and methods of use” (priority 2011, dated 2015):

Tests used:
L. innocua ATCC 33090 = experiment: Spot-on-lawn antimicrobial activity; type: cell-based, Listeria innocua; conditions: TSBYE
Experimental: (§1) Spot-on-lawn method [He, Z., et al., Appl. Environ. Microbiol., (2007) 73:168-178] was used for the bioassay of antimicrobial activity. Bacterial indicators were incubated at 37° C. for 24 h, except Pseudomonas putida, Clostridium difficile and methycillin resistant Staphylococcus aureus which were incubated for 48 h (Table 1). The indicator overlay was prepared by pouring 10 ml soft agar (seeded with 10 μL indicator culture) onto tryptose agar as basal medium in a petri dish. Purified antimicrobials were two-fold serially diluted and aliquots (10 μL each) were spotted onto the soft agar. The plates were incubated overnight and inspected for the presence of growth inhibition zones. Antimicrobial activity was expressed in arbitrary units (AU)/mL; this value is the reciprocal of the highest dilution displaying a zone of inhibition corresponding to 1 mL of the non-diluted antimicrobial preparation.
(§2) Purified paenibacterin was used for the antimicrobial spectrum test. Microorganisms tested for sensitivity to this compound included pathogenic (e.g., Salmonella Typhimurium, Escherichia coli O157:H7, Listeria monocytogenes, and Staphylococcus aureus) and non-pathogenic (e.g., Escherichia coli K-12, Pseudomonas putida, and Enterococcus faecalis) bacteria (Table 1).

Escherichia coli O157:H7 = experiment: Antimicrobial spectrum test; type: cell-based; conditions: gram-negative pathogens such as Escherichia coli O157:H7
Experimental: as §1, §2

MRSA ATCC 43300 SAU.399 = experiment: microbe, parasite or virus in culture; conditions: SAU.399, MRSA ATCC 43300; NBS 96-well plates
Experimental: (§3) The activity of paenibacterin against several strains of Gram-positive and Gram-negative foodborne pathogens is summarized in Table 10. The data is reported as minimum inhibitory concentrations (MIC) as an average of three replicates for paenibacterin against the various listed bacterial strains. […] MICs were determined according to the CLSI broth microdilution method (see, Clinical and Laboratory Standards Institute (CLSI). 2009. Methods for dilution antimicrobial susceptibility tests for bacteria that grow aerobically; approved standard. […]. CLSI, Wayne, Pa.). Briefly, HPLC-purified paenibacterin was dissolved in methanol and diluted to appropriate concentration with cation-adjusted Mueller-Hinton II broth (Difco). Aliquots (25 μl) of serially-diluted paenibacterin was dispensed into wells of a 96-well plate; an equal amount of 1/10 diluted overnight bacterial culture was added to wells. Plates were incubated at 35° C. for 24 h. Cell growth after incubation was examined and determined using a microtiter plate reader at 600 nm. Concentration of paenibacterin is determined based on a molecular weight of 1604 Da.
(§4) The activity of paenibacterin was further tested against clinical isolates of the following Gram-positive bacteria: methicillin-sensitive Staphylococcus aureus (MSSA), methicillin-resistant S. aureus (MRSA), vancomycin-sensitive Enterococcus faecalis, vancomycin-resistant E. faecalis (VRE), Streptococcus pneumoniae, and laboratory derived daptomycin-resistant (DR) MSSA, MRSA, and VRE strains. The MICs were determined using the above described CLSI broth microdilution method, in which the method was performed with non-binding surface coated (NBS) 96-well plates.

WT ATCC 29212 EFS.43 = experiment: microbe, parasite or virus in culture; conditions: EFS.43, WT ATCC 29212; NBS 96-well plates
Experimental: as §3, §4

[1] = tested on: DS-VRE ATCC 700802 EFS.807; experiment: microbe, parasite or virus in culture; conditions: EFS.807, DS-VRE ATCC 700802; NBS 96-well plates
Experimental: as §3, §4

PAE.2281 = experiment: MIC, CLSI broth microdilution, Gram-negative clinical isolates; type: cell-based, Pseudomonas aeruginosa
Experimental: (§5) Plates were incubated at 35° C. for 24 h.
(§6) The activity of paenibacterin was also tested against clinical isolates of the following Gram-negative bacterial strains: four strains of the species Pseudomonas aeruginosa (PAE), three strains of the species Acinetobacter baumannii (ABA), two strains of the species Escherichia coli (ECO), and four strains of the species Klebsiella pneumoniae (KPN). Particularly, the strains of Gram-negative bacteria included polymyxin B-resistant (PMB-R) and polymyxin B-sensitive (PMB-S) strains of each above listed species. The MICs were determined using the above described CLSI broth microdilution method, in which the method was performed with both non-binding surface coated (NBS) and polystyrene (PS) 96-well plates (Tables 11 and 12, respectively). The MICs were generally lower in the NBS 96-well plates as compared to the PS 96-well plates.

PAE.44 = experiment: as above; type: cell-based, Pseudomonas aeruginosa
Experimental: as §5, §6

PAE.999 = experiment: as above; type: cell-based, Pseudomonas aeruginosa
Experimental: as §5, §6

[2] = Enzyme sensitivity test (residual antimicrobial activity, spot-on-lawn); type: physicochemical; conditions: 10 h
Experimental: Crude extracts of Paenibacillus thiaminolyticus OSY-SE were tested for sensitivity to heat and pH change while purified antimicrobial compounds were used for enzyme sensitivity tests. For thermal stability test, crude extract solutions were exposed to 37° C., 55° C. (in incubators) or 80° C. (in a water bath) for 24 h or autoclaved at 121° C. for 5 minutes. For pH stability test, crude extract solutions were diluted with 25 mM phosphate buffer (pH 7.0) and adjusted to pH 3.0, 5.0 and 9.0, followed by incubation for 12 h. Samples were neutralized to pH 7.0 before the antimicrobial activity test. Enzyme sensitivity tests were performed in 25 mM phosphate buffer (pH 7.0) with trypsin (type I, 12705 U/mg), lipase (type I, 9 U/mg), pronase (6.31 U/mg), α-glucosidase (type I, 100U/1.93 mg), lysozyme (46400 U/mg) and in 25 mM phosphate buffer (pH 8.0) with polymyxin acylase (16 U/mg). All enzymes were purchased from Sigma (St. Louis, Mo.) except polymyxin acylase (Wako Chemicals USA, Inc., Richmond, Va.). Digesting solutions were prepared at concentration of 0.1 mg/mL for polymyxin acylase and 0.5 mg/mL for others. These mixtures of enzyme and antimicrobial compound (40 μL of final volume) were incubated at 37° C. for 10 h. Quantitative spot-on-lawn bioassay was used to measure antimicrobial activities after these treatments.

ABA.2232 = experiment: MIC, CLSI broth microdilution, Gram-negative clinical isolates; type: cell-based, Acinetobacter baumannii
Experimental: as §5, §6

ABA.1570 = experiment: as above; type: cell-based, Acinetobacter baumannii
Experimental: as §5, §6

ABA.2315 = experiment: as above; type: cell-based, Acinetobacter baumannii
Experimental: as §5, §6

paenibacterin
Antimicrobial activity (AU/ml) (L. innocua ATCC 33090): 1600 AU/ml
Antimicrobial activity (in words) (Escherichia coli O157:H7): good activity
Minimum inhibitory concentration (MIC) (MRSA ATCC 43300 SAU.399): 32 µg/mL
Minimum inhibitory concentration (MIC) (WT ATCC 29212 EFS.43): 32 to 64 µg/mL
Minimum inhibitory concentration (MIC) [1]: 64 µg/mL
Minimum inhibitory concentration (MIC) (PAE.2281; NBS 96-well plates): 32 to 64 µg/mL
Minimum inhibitory concentration (MIC) (PAE.2281; PS 96-well plates): 64 µg/mL
Minimum inhibitory concentration (MIC) (PAE.44; non-binding surface coated (NBS) 96-well plates): 8 µg/mL
Minimum inhibitory concentration (MIC) (PAE.44; polystyrene (PS) 96-well plates): 64 µg/mL
Minimum inhibitory concentration (MIC) (PAE.999; NBS 96-well plates): 8 µg/mL
Minimum inhibitory concentration (MIC) (PAE.999; PS 96-well plates): 64 µg/mL
Antimicrobial activity after enzyme treatment ([2]; lipase 0.5 mg/mL, pH 7.0, 37° C.): resistant
Antimicrobial activity after enzyme treatment ([2]; lysozyme 0.5 mg/mL, pH 7.0, 37° C.): resistant
Antimicrobial activity after enzyme treatment ([2]; polymyxin acylase 0.1 mg/mL, pH 8.0, 37° C.): activity was lost
Antimicrobial activity after enzyme treatment ([2]; pronase 0.5 mg/mL, pH 7.0, 37° C.): activity was lost
Antimicrobial activity after enzyme treatment ([2]; trypsin 0.5 mg/mL, phosphate buffer pH 7.0, 37° C.): resistant
Antimicrobial activity after enzyme treatment ([2]; α-glucosidase 0.5 mg/mL, pH 7.0, 37° C.): resistant
Minimum inhibitory concentration (MIC) (ABA.2232; NBS 96-well plates): 2 µg/mL
Minimum inhibitory concentration (MIC) (ABA.2232; PS 96-well plates): 32 µg/mL
Minimum inhibitory concentration (MIC) (ABA.1570; NBS 96-well plates): 2 µg/mL
Minimum inhibitory concentration (MIC) (ABA.1570; PS 96-well plates): 32 µg/mL
Minimum inhibitory concentration (MIC) (ABA.2315; NBS 96-well plates): 2 µg/mL
Minimum inhibitory concentration (MIC) (ABA.2315; PS 96-well plates): 32 µg/mL
